This is an account of results in ChEMBL document CHEMBL5665443, “Enzyme Inhibitor Single Concentration assay results for EUbOPEN Chemogenomics Library” (2024).

Assay [1] concerns the target T1, Single-strand selective monofunctional uracil DNA glycosylase (Homo sapiens) (UniProt Q53HV7).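 Further: enzymatic SMUG1 assay coupled with APE1, reading fluorescence at 594 nm released when a quenched double-stranded DNA oligonucleotide substrate is cleaved and separated.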
T1 sequence (whole entry): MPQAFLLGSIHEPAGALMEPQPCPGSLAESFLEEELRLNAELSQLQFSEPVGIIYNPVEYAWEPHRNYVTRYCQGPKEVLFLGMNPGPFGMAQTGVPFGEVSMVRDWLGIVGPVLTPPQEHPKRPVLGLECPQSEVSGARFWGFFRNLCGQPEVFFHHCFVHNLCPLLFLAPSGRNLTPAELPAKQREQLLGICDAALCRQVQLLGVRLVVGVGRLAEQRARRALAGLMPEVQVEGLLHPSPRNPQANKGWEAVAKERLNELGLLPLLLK
The conditions noted are these: Hit No.
Description: Inhibition of SMUG1 by quantifying inhibition of SMUG1-mediated cleavage and dissociation of quenched duplex DNA oligonucleotides, measured as fluorescence at 594 nm. To generate a functional strand incision and increase turn-over this assay is coupled to APE1.

Assay [2] has as its target T2, Endonuclease III-like protein 1 (Homo sapiens) (UniProt P78549).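 Further: enzyme assay tracking NTHL1 cutting and release of a quenched double-stranded DNA oligo substrate, read as fluorescence at 594 nm.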
T2 sequence (whole entry): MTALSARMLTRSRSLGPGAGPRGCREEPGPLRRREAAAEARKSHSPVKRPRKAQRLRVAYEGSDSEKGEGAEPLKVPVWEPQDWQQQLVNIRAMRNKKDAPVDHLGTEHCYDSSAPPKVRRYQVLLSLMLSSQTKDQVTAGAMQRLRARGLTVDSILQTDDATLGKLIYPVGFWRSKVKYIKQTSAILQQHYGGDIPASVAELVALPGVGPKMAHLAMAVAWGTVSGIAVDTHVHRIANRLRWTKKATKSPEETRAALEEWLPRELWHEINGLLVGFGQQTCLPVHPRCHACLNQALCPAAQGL
As to conditions: Hit No.
Description: Inhibition of NTHL1 by quantifying inhibition of NTHL1-mediated cleavage and dissociation of quenched duplex DNA oligonucleotides, measured as fluorescence at 594 nm.

Assay [3] has as its target T3, Adenine DNA glycosylase (Homo sapiens) (UniProt Q9UIF7).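 Further: human MUTYH activity read as 594 nm fluorescence from cleavage and release of a quenched DNA duplex, coupled with APE1 for strand incision, lower signal meaning inhibition.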
T3 sequence (whole entry): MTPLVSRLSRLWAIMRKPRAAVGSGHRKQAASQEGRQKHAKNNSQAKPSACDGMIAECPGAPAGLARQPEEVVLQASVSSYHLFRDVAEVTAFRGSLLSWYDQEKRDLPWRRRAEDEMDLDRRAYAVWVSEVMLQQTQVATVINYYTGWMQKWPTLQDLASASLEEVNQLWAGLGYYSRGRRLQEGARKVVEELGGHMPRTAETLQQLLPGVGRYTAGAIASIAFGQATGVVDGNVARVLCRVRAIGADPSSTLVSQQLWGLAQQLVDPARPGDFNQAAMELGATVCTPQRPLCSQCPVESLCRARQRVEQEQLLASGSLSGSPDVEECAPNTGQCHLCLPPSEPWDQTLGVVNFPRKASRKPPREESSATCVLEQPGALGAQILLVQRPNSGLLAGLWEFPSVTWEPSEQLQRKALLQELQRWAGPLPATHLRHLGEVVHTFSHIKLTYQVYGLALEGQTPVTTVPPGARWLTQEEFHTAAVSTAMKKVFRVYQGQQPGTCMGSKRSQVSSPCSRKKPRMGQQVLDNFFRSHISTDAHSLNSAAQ
As to conditions: Hit No.
Description: Inhibition of MUTYH by quantifying inhibition of MUTYH-mediated cleavage and dissociation of quenched duplex DNA oligonucleotides, measured as fluorescence at 594 nm. To generate a functional strand incision and increase turn-over this assay is coupled to APE1.

The target in assay [4] is Uracil-DNA glycosylase (Homo sapiens) (UniProt P13051). As to conditions: Hit No.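 Further: UNG excision on a quenched double-stranded DNA oligo probe, with APE1 added for strand incision and turnover, read as fluorescence at 594 nm as strands separate.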
Uracil-DNA glycosylase (Homo sapiens), sequence (P13051 whole entry): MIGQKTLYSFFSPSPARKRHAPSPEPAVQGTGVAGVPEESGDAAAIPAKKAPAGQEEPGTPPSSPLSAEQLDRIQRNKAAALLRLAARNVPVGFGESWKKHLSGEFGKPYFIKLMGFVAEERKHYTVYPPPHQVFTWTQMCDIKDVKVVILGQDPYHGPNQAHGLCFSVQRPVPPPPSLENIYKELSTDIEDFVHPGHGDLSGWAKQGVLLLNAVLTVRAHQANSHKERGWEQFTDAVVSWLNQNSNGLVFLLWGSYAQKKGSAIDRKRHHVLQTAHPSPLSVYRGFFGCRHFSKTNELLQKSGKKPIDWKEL
Description: Inhibition of UNG by quantifying inhibition of UNG-mediated cleavage and dissociation of quenched duplex DNA oligonucleotides, measured as fluorescence at 594 nm. To generate a functional strand incision and increase turn-over this assay is coupled to APE1.
The target in assay [5] is G/T mismatch-specific thymine DNA glycosylase (Homo sapiens) (UniProt Q13569). As to conditions: Hit No.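 Further: human TDG cleavage of quenched duplex DNA oligonucleotides coupled to APE1, strand release read as fluorescence at 594 nm, inhibition of TDG activity.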
G/T mismatch-specific thymine DNA glycosylase (Homo sapiens), sequence (Q13569 whole entry): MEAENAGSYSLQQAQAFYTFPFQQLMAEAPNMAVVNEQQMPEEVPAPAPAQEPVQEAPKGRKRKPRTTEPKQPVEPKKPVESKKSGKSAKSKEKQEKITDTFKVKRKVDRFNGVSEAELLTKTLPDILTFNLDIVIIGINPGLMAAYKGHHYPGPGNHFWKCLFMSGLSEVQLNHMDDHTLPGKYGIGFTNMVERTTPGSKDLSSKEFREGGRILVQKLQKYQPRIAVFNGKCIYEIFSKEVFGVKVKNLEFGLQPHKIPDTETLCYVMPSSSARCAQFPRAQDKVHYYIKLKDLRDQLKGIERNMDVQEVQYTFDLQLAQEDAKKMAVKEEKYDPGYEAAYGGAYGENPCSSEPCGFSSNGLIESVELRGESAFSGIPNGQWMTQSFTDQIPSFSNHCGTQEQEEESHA
Description: Inhibition of TDG by quantifying inhibition of TDG-mediated cleavage and dissociation of quenched duplex DNA oligonucleotides, measured as fluorescence at 594 nm. To generate a functional strand incision and increase turn-over this assay is coupled to APE1.
For assay [6], the target named is Endonuclease 8-like 1 (Homo sapiens) (UniProt Q96FI4). As to conditions: Compound Concentration 10.0 uM, Hit No.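 Further: fluorescence at 594 nm from quenched duplex DNA oligonucleotides released by NEIL1 cleavage and strand separation, reported as reduction of this enzyme activity.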
Endonuclease 8-like 1 (Homo sapiens), sequence (Q96FI4 whole entry): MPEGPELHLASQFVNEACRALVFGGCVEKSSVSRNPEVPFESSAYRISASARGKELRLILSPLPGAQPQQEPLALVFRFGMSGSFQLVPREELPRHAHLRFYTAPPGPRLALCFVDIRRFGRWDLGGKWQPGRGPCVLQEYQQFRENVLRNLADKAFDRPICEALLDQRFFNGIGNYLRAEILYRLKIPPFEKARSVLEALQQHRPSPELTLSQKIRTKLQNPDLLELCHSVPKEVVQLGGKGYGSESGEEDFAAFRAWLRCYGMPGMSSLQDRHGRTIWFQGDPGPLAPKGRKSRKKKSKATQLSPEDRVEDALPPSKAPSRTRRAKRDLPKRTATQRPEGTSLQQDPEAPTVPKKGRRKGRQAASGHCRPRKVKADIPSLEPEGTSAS
Description: Inhibition of NEIL1 by quantifying inhibition of NEIL1-mediated cleavage and dissociation of quenched duplex DNA oligonucleotides, measured as fluorescence at 594 nm.
Assay [7] deals with T4, Endonuclease 8-like 2 (Homo sapiens) (UniProt Q969S2).
T4 sequence (whole entry): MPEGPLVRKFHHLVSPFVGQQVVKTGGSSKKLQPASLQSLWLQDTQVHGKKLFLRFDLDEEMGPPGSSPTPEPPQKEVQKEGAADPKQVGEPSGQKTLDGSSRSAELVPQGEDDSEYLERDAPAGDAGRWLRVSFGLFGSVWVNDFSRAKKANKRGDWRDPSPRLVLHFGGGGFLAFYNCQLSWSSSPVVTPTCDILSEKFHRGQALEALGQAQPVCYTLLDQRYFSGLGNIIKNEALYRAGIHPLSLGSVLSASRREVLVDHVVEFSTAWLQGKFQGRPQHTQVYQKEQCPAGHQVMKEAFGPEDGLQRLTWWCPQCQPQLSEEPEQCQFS
As to conditions: Compound Concentration 10.0 uM, Hit No.
Description: Inhibition of NEIL2 by quantifying inhibition of NEIL2-mediated cleavage and dissociation of quenched duplex DNA oligonucleotides, measured as fluorescence at 594 nm.

Assay [8] deals with N-glycosylase/DNA lyase (Homo sapiens) (UniProt O15527). As to conditions: Compound Concentration 10.0 uM, Hit No.
N-glycosylase/DNA lyase (Homo sapiens), sequence (O15527 whole entry): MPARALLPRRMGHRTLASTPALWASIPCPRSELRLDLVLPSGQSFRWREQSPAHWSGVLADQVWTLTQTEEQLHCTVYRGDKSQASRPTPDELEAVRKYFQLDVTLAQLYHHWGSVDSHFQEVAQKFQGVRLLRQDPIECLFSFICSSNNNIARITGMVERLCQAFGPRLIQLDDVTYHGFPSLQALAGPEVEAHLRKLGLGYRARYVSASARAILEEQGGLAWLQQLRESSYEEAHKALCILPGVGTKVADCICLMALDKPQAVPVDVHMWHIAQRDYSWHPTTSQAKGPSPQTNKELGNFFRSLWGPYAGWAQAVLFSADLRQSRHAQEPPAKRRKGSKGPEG
Description: Inhibition of OGG1 by quantifying inhibition of OGG1-mediated cleavage and dissociation of quenched duplex DNA oligonucleotides, measured as fluorescence at 594 nm. To generate a functional strand incision and increase turn-over this assay is coupled to APE1.

Broadly, the inhibition is the drop in the measured response relative to a control, in per cent. Take `Cn1cnc2c(F)c(Nc3ccc(Br)cc3Cl)c(C(=O)NOCCO)cc21`: the inhibition is 16.2% in assay [1] (Compound Concentration 10.0 uM); -8.28% in assay [2] (Compound Concentration 10.0 uM); -2.18% in assay [3] (Compound Concentration 10.0 uM); -1.17% in assay [4] (Compound Concentration 10.0 uM); 39.7% in assay [5] (Compound Concentration 10.0 uM); 11.5% in assay [6].
Regarding `CNC(=O)Nc1ccc(-c2nc(N3CC4CCC(C3)O4)c3cnn(C4CCC5(CC4)OCCO5)c3n2)cc1`, the inhibition in assay [1] (Compound Concentration 10.0 uM) came out at 15.7%; in assay [2] (Compound Concentration 10.0 uM), 2.88%; in assay [3] (Compound Concentration 10.0 uM), 5.83%; in assay [4] (Compound Concentration 10.0 uM), 6.27%; in assay [5] (Compound Concentration 10.0 uM) it was 46.1%; in assay [6], 2.52%.
`CCC(=O)NC[C@@H]1C[C@H]1c1cccc2c1CCO2`: the inhibition in assay [2] (Compound Concentration 10.0 uM) was -4.67%; in assay [7] it was -7.72%; in assay [3] (Compound Concentration 10.0 uM), 2.71%; in assay [8], 1.29%; in assay [5] (Compound Concentration 10.0 uM) it was 4.27%; in assay [6] it was 4.24%.
As for `CC(=O)NCCc1c(Cc2ccccc2)[nH]c2ccccc12`, the inhibition in assay [2] (Compound Concentration 10.0 uM) was 2.66%; in assay [7] it was 3.51%; in assay [3] (Compound Concentration 10.0 uM), 0.533%; in assay [8], -9.93%; in assay [5] (Compound Concentration 10.0 uM), 16.3%; in assay [6], 4.1%.
As to `OC[C@H]1O[C@@H](n2cnc3c(NC4CCCC4)ncnc32)[C@H](O)[C@@H]1O`, the inhibition in assay [1] (Compound Concentration 10.0 uM) is -9.38%; in assay [2] (Compound Concentration 10.0 uM) it was 7.05%; in assay [7] it was 11.2%; in assay [3] (Compound Concentration 10.0 uM), 9.75%; in assay [5] (Compound Concentration 10.0 uM) it was -6.42%; in assay [6], 2.61%.
Turning to `C=CCN1C[C@H](C(=O)N(CCCN(C)C)C(=O)NCC)C[C@@H]2c3cccc4[nH]cc(c34)C[C@H]21`, the inhibition in assay [1] (Compound Concentration 10.0 uM) was -9.96%; in assay [2] (Compound Concentration 10.0 uM), 1.92%; in assay [7], -3.73%; in assay [3] (Compound Concentration 10.0 uM), 1.81%; in assay [5] (Compound Concentration 10.0 uM) it was -7.89%; in assay [6], 10.6%.
On to `COc1ccccc1CN[C@H]1C2CCN(CC2)[C@H]1C(c1ccccc1)c1ccccc1`, for which the inhibition in assay [2] (Compound Concentration 10.0 uM) is -5.41%; in assay [7], -6.97%; in assay [3] (Compound Concentration 10.0 uM), 11.2%; in assay [4] (Compound Concentration 10.0 uM), -4.4%; in assay [8] it was -6.59%; in assay [5] (Compound Concentration 10.0 uM), 0.738%. In addition, the inhibition in assay [6] was -4.06%.
For `COc1ccc(Oc2cc(NCCC(F)(F)F)c3ncc(-c4ccc(C(=O)NC5CC5)c(C)c4)n3n2)c(F)c1F`, the inhibition in assay [1] (Compound Concentration 10.0 uM) was 5.15%; in assay [2] (Compound Concentration 10.0 uM), -2%; in assay [3] (Compound Concentration 10.0 uM), -2.54%; in assay [4] (Compound Concentration 10.0 uM), 0.303%; in assay [5] (Compound Concentration 10.0 uM), 93.1%.
On to `CN(C)C/C=C/C(=O)Nc1cc2c(Nc3ccc(F)c(Cl)c3)ncnc2cc1O[C@H]1CCOC1`, for which the inhibition in assay [1] (Compound Concentration 1.0 uM) was -1.31%; in assay [2] (Compound Concentration 1.0 uM), 4.97%; in assay [3] (Compound Concentration 1.0 uM), 19.4%; in assay [4] (Compound Concentration 1.0 uM), -1.9%; in assay [5] (Compound Concentration 1.0 uM), 46.9%.
As to `CNc1cc(Oc2cc(C(=O)Nc3cc(N4CCN(C)CC4)cc(C(F)(F)F)c3)ccc2C)ncn1`, the inhibition in assay [1] (Compound Concentration 10.0 uM) was -8.61%; in assay [2] (Compound Concentration 10.0 uM), 11.9%; in assay [3] (Compound Concentration 10.0 uM), -9.46%; in assay [4] (Compound Concentration 10.0 uM) it was -3.12%; in assay [5] (Compound Concentration 10.0 uM), 76.5%.
